From patent US7488743B2, “Indolin-2-one pyridine derivatives, preparation and therapeutic use thereof” (Sanofi-Aventis, priority 2004, dated 2009)
Counter-ions that a name gives are not always drawn. Blank lines part the entries; values can stand above or below the compound they belong to.

Key:
[1] = biological target: T1, human uterine oxytocin receptors (Homo sapiens, UniProt P30559); assay: in vitro binding test: displacement of a radioiodinated oxytocin analog in a membrane preparation; settings: read-out: IC50 (concentration which inhibits 50% of the binding of the radioiodinated oxytocin analog to its receptors)
T1 construct: host or cells: membrane preparation
T1 sequence (P30559 1-389): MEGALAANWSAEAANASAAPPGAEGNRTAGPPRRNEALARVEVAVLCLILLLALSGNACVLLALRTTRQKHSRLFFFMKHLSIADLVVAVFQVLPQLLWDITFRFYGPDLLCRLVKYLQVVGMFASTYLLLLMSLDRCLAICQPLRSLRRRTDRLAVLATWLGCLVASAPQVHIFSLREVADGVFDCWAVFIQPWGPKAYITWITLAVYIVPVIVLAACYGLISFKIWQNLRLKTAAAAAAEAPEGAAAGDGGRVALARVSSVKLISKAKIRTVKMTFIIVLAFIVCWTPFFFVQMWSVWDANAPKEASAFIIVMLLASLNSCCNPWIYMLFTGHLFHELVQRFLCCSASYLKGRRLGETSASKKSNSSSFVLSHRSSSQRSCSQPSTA
Description: The compounds according to the invention have formed the subject of biochemical and pharmacological studies. The affinity of the compounds according to the invention for oxytocin receptors was determined in an in vitro binding test using the method described by J. Elands et al., Eur. J. Pharmacol. (1987), 147, pp. 197-207. This method consists in studying in vitro the displacement of a radioiodinated oxytocin analog at the oxytocin receptors in a membrane preparation of human uterine oxytocin receptors. The IC50 values (concentration which inhibits 50% of the binding of the radioiodinated oxytocin analog to its receptors) are low and vary from 10^−10 to 10^−6 M in the latter test.

[2] = biological target: T2, cells expressing human oxytocin receptors (Homo sapiens, UniProt P30559); assay: measurement of intracellular calcium (agonist or antagonist nature); type: cell-based
T2 sequence (P30559 1-389): T1 sequence (P30559 1-389)
Description: The agonist or antagonist nature of the compounds is determined in vitro in a test for the measurement of intracellular calcium with respect to cells expressing human oxytocin receptors according to the general technique described in Am. J. Physiol., 268, and Heart Circ. Physiol. (1995), 37, H404-H410.

[3] = biological target: human vasopressin V2 receptors (Homo sapiens, UniProt P30518); assay: affinity for vasopressin V2 receptors (method of Birnbaumer et al.); type: binding; settings: tested at a concentration of 1 μM; read-out: percentage of inhibition on V2 receptors
human vasopressin V2 receptors, sequence (P30518 whole entry): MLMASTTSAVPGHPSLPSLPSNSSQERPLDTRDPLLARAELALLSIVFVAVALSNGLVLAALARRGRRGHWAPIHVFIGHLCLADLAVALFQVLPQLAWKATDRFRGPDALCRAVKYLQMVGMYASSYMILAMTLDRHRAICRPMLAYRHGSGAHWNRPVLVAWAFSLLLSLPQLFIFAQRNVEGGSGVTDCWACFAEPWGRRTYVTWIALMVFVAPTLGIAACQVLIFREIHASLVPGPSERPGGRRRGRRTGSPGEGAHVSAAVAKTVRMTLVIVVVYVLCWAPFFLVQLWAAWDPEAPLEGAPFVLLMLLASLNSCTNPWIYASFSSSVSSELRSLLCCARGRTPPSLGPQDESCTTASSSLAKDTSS
From the text: (§1) The affinity of these compounds for human vasopressin V1a receptors (method described by M. Thibonnier et al. in J. Biol. Chem. (1994), 269, pp. 3304-3310), V1b receptors (method described by T. Sugimoto et al. in J. Biol. Chem. (1994), 269, pp. 27088-27092) and V2 receptors (method described by T. Birnbaumer et al. in Nature (Lond.) (1992), 357, pp. 333-335) has also been studied. The compounds studied have little or no affinity for the V1a, V1b and V2 receptors.

[4] = biological target: human vasopressin V1a receptors (Homo sapiens, UniProt P37288); assay: affinity for vasopressin V1a receptors (method of Thibonnier et al.); type: binding; settings: tested at a concentration of 1 μM; read-out: percentage of inhibition on V1a receptors
human vasopressin V1a receptors, sequence (P37288 whole entry): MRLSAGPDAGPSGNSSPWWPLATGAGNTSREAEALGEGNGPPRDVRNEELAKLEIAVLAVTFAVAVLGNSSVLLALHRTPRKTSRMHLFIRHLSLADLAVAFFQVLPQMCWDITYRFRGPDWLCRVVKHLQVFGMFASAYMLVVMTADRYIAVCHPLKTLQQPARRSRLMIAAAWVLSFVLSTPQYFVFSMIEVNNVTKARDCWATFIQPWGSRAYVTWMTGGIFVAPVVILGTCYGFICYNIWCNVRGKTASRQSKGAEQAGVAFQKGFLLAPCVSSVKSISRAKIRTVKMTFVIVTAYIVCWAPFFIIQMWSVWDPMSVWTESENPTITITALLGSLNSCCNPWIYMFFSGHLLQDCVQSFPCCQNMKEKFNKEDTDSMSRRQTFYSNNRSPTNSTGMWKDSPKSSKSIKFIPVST
From the text: as §1

[5] = biological target: T3, human vasopressin V1b receptors (Homo sapiens, UniProt P47901); assay: affinity for vasopressin V1b receptors (method of Sugimoto et al.); type: binding; settings: tested at a concentration of 1 μM; read-out: percentage of inhibition on V1b receptors
T3 sequence (P47901 1-424): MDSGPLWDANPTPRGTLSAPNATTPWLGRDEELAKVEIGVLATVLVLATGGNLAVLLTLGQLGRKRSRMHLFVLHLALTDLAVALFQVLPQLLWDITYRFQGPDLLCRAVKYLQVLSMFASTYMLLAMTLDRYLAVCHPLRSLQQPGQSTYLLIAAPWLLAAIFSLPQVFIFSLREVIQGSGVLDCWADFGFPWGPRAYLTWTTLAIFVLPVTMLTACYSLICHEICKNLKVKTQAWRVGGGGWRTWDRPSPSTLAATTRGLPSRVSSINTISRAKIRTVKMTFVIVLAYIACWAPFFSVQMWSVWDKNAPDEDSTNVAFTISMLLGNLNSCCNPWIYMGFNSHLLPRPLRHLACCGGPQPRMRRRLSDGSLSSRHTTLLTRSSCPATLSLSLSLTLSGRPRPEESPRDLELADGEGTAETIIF
From the text: as §1

Compound: CCN(Cc1ccc[n+]([O-])c1)C(=O)c1ccc(Cl)c(C2(C)C(=O)N(Cc3ccc(OC)cc3OC)c3ccc(Cl)cc32)c1 (centres unmarked) (as salt: hydrochloride) [example 7, 4-chloro-3-[5-chloro-1-(2,4-dimethoxybenzyl)-3-methyl-2-oxo-2,3-dihydro-1H-indol-3-yl]-N-ethyl-N-(1-oxypyrid-3-ylmethyl)benzamide hydrochloride]
melting point: 176 °C

IC50 [1]: 6.9 nM
Compound: CCN(Cc1ccc[n+](CC(=O)O)c1)C(=O)c1ccc(Cl)c(C2(C)C(=O)N(Cc3ccc(OC)cc3OC)c3ccc(Cl)cc32)c1 (centres unmarked) [example 2, 1-Carboxymethyl-3-[({4-chloro-3-[5-chloro-1-(2,4-dimethoxybenzyl)-3-methyl-2-oxo-2,3-dihydro-1H-indol-3-yl]benzoyl}(ethyl)amino)methyl]pyridinium chloride]

IC50 [2]: 3 nM
agonist or antagonist nature [2]: antagonist
Compound: CCN(Cc1ccc[n+]([C@@H]2O[C@H](C(=O)O)[C@@H](O)[C@H](O)[C@H]2O)c1)C(=O)c1ccc(Cl)c(C2(C)C(=O)N(Cc3ccc(OC)cc3OC)c3ccc(Cl)cc32)c1 (stereo partly drawn) [example 3, 1-(β-D-Glucopyranuronosyl)-3-[({4-chloro-3-[5-chloro-1-(2,4-dimethoxybenzyl)-3-methyl-2-oxo-2,3-dihydro-1H-indol-3-yl]benzoyl}(ethyl)amino)methyl]pyridinium chloride]

Compound: CCN(Cc1ccc[n+]([O-])c1)C(=O)c1ccc(Cl)c(C2(C)C(=O)N(Cc3ccc(OC)cc3OC)c3ccc(Cl)cc32)c1 (centres unmarked) [example 7, 4-chloro-3-[5-chloro-1-(2,4-dimethoxybenzyl)-3-methyl-2-oxo-2,3-dihydro-1H-indol-3-yl]-N-ethyl-N-(1-oxypyrid-3-ylmethyl)benzamide hydrochloride]
inhibition at 1 µM [3]: < 50%
inhibition at 1 µM [4]: < 50%
inhibition at 1 µM [5]: < 50%
IC50 [1]: < 50 nM
